Data as given in patent US11827690B2, “ApoC-II mimetic peptides” (THE UNITED STATES OF AMERICA, as represented by the …, priority 2017, dated 2023).

Legend:
[1] = system: chylomicrons isolated from human plasma; assay: ApoC-III displacement study in chylomicrons isolated from human plasma; type: binding
Experimental: VLDL or chylomicrons isolated from human plasma were incubated with an apoC-II mimetic peptide for 1 hour at 37° C. and washed 3 times with PBS using spin filter with 100 kDa cutoff membrane. Supernatants were brought to the original volume with PBS and loaded to 4-12% Bis-TRIS SDS PAGE gel. ApoC-I, apoC-II, apoC-III, and apoE bands were identified by their corresponding size.

[2] = system: C57BL/6 mice (wild-type); assay: post-prandial serum TG in C57BL/6 mice after oral gavage with vegetable oil; type: in vivo; conditions: 1 μmoL/kg IP or SQ 30 min before gavage with vegetable oil (10 μL/gram)
Experimental: (§1) C57Bl/6 mice (wild-type), apoC-II knockout (apoC-II KO) mice, and apoC-III transgenic mice were used for in vivo study. The C57Bl/6 mice (wild-type) were purchased from Taconic Biosciences Inc. The apoC-II KO mice were created as described in Sakurai et al., J Pharmacol Exp Ther 356:341-353, 2016. The apoC-III transgenic mice were generated by overexpressing human apoC-III in C57Bl/6 mice. See Qu et al., J. Lipid Res. 48:1476-1487, 2007.
(§2) Mice were fasted overnight (approximately 12 hours) before the study and 6 hours during the study, the next day. The apoC-II mimetic peptides were synthetically produced and free of biological contamination (not available as FDA approved compounds/treatment). Peptides were produced and used in sterile conditions and filtered by 0.2 nm filter before injections in a single dose 1-10 μmol/kg body weight (B. W.) administered either subcutaneous injection (S.Q. or S.C.), intraperitoneal injection (I.P.) or intravenous injection (I.V.) (in a sterile, pharmaceutical grade PBS solution at a volume ≤200 μL) as described in Sakurai et al., J Pharmacol Exp Ther 356:341-353, 2016.
In some experiments, each animal received 20% Intralipid (FDA approved, Fresenius Kabi, Uppsala, Sweden) in a single dose either by oral gavage (using special sterile single-use non-toxic animal feeding needles) in a dose 10-20 μL/gram body weight (B.W.) (Tuzcu et al. Drug Chem Toxicol 37: 261-267, 2014; Kusminski et al. Nature Medicine 18: 1539-1549, 2012), or by intraperitoneal injection in a single bolus of 0.1-1.0 mL (Mahadero et al. American J Surgery 164: 45-50, 1992), or by intragastric administration of a dietetic commercially-available liquid oil (food grade vegetable, corn, soy or olive oil) in a single dose 10-20 μL/gram body weight. These oils were a source of TG—when absorbed TG tends to be broken down within 3 h (peak in 30 min) (Kritchevsky Nutritional Biochemistry 6:172-178, 1995). Blood samples (20-30 μL) were obtained from the retro-orbital plexus at time points: −1 h, 0 h, 1 h, 3 h, 6 h and 24 h for measurements of lipids. Mice were returned to metabolic cages after the 6 h time point where the food was put back. Once the study was completed (after 24 hours from the fat administration), mice were euthanized and organs collected.

[3] = system: lipoproteins of human serum; assay: incubation of human serum with exogenous apoC-II-a; type: binding; conditions: doses comparable to that achieved in vivo in mice
[4] = system: apoC-II knockout mice; assay: plasma lipids of apoC-II knockout mice after peptide injection; type: in vivo
[5] = system: apoC-III transgenic mice; assay: plasma TG and apoC-III of apoC-III transgenic mice after peptide injection; type: in vivo
Experimental: as §1, §2

[6] = SEC-FPLC, 1 μmole/kg, 6 hours after injection, FIG. 41
[7] = ELISA, 5 μmole/kg, Day 1 and Day 5, 3 h after injection

Sequence	affinity for chylomicrons compared with the apolipoproteins [1]	post-prandial TG rise [2]	binding to lipoproteins and apolipoprotein displacement [3]	time of maximum reduction of plasma TG ([4]; 0.1 μmol/kg intraperitoneally, after the peptide injection)	plasma TG ([4]; 0.1 μmol/kg of body weight intraperitoneally, FIG. 53)	level of HDL as measured by the phospholipid level [4, 6]	level of VLDL as measured by the phospholipid level [4, 6]	level of TG in the VLDL pool ([4]; SEC-FPLC, 1 μmole/kg, FIG. 42)	plasma TG ([4]; intraperitoneal injection)	plasma TG ([4]; repeat IP injection at 24 h intervals for 6 days, 0.25 and 1 μmole/kg, FIG. 40)	plasma TG ([4]; subcutaneous injection)	apoC-III level on HDL [5, 7]	apoC-III level on VLDL [5, 7]	plasma TG compared to control ([5]; repeat IP injection at 24 h intervals for 5 days, 5 μmole/kg, 1 h, 3 h, 6 h after injection on Day 1 and Day 5)	plasma TG ([5]; single intraperitoneal injection, 1, 5 and 10 μmole/kg, FIG. 38B)	time of maximum decrease of plasma TG ([5]; single intraperitoneal injection, after the injection)
DWLKAFYDKVAEKLKEAFPAMSTYTGIFTDQVLSVLKGEE (listed as Homo sapiens) [apoC-II-a, excluded from the claimed peptides]	higher affinity for chylomicrons than the apolipoproteins	almost completely blunted	binds to all lipoproteins, including HDL and causes the displacement of apoC-I and apoC-III	–	–	–	–	–	–	–	–	–	–	–	–	–
DYLKEVFEKLRDLYEKFTPAVSTYTGIFTDQVLSVLKGEE [Delta6PV]	–	–	–	about 6 hours	rapid reduction of plasma TG	increased	decreased	decreased	rapid and marked reduction of plasma TG	marked and lasting reduction of plasma TG	rapid and marked reduction of plasma TG	decreased	decreased	lower plasma TG	rapid and marked reduction of plasma TG	about 6 hours
